This note sets out measurements from ChEMBL document CHEMBL1201862, “PubChem BioAssay data set” (2004).

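Cultured in 96-well plates, cells were exposed to test compound for 48 hours across five concentrations. Abbreviation: GI50, concentration required for 50% inhibition of growth.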 Calls of active or inactive are those of the source. No stated cut-off is given here; in the data, active = GI50 up to about 1.1 µM and inactive = higher.

Some test systems named below: RPMI-8226; DU-145; NCI-H460; Hs-578T; SW-620; MDA-MB-231; K562; UACC-62; HOP-62; HCT-116; NCI-H226; A549; Malme-3M; SR; HL-60; IGROV-1; HCT-15; U-251; TK-10; COLO 205.
Experiment in all cases: inhibition of tumour cell growth, NCI panel, 48 h

On to `O=C1C=C(C2=C(C3=CC(=O)c4ccccc4C3=O)C(=O)c3ccccc3C2=O)C(=O)c2ccccc21`, for which the GI50 was 3.48 µM (inactive) with RPMI-8226; 5.18 µM (inactive) with DU-145; 14.8 µM (inactive) in the assay with NCI-H460; 11.5 µM (inactive) in the assay with Hs-578T; 3.79 µM (inactive) in the assay on SW-620; 3.07 µM (inactive) with MDA-MB-231. In addition, the GI50 is 2.67 µM (inactive) in the assay on K562; 15.1 µM (inactive) with UACC-62; 14.8 µM (inactive) in the assay with HOP-62; 4.84 µM (inactive) in the assay with HCT-116; 13 µM (inactive) with NCI-H226; 9.48 µM (inactive) in the assay with A549. The GI50 with Malme-3M is 2.11 µM (inactive); in the assay on SR it was 31.1 µM (inactive); in the assay with HL-60, 1.21 µM (inactive); in the assay with IGROV-1 it was 2.15 µM (inactive); in the assay with HCT-15, 9.89 µM; in the assay with U-251, 4.48 µM (inactive). Also, the GI50 in the assay with TK-10 was 6.21 µM (inactive); in the assay on COLO 205, 3.94 µM (inactive).

With `N/N=C1N=C(Cl)/C(=C/c2ccco2)N\1`, the GI50 is 16.8 µM (inactive) in the assay with RPMI-8226; 50.4 µM (inactive) with DU-145; 41.3 µM (inactive) with Hs-578T; 41.5 µM (inactive) in the assay with SW-620; > 100 µM (inactive) with MDA-MB-231; 14.8 µM (inactive) in the assay with K562. In addition, the GI50 in the assay with HOP-62 was 59.2 µM (inactive); in the assay with HCT-116, 36.5 µM (inactive); with NCI-H226, > 100 µM (inactive); with A549 it was 38 µM (inactive); in the assay with Malme-3M, 52.5 µM (inactive); in the assay with SR it was 25.8 µM (inactive). Also, the GI50 in the assay with HL-60 is 21.9 µM (inactive); with IGROV-1, 42.4 µM (inactive); in the assay on HCT-15, 31.5 µM; in the assay with U-251, 47.9 µM (inactive); with TK-10 it was 71.9 µM (inactive); in the assay with COLO 205, 43.1 µM (inactive).

Consider `CCCCCCCCCCC/C=C(/C(=O)CCCO[Si](C)(C)C(C)(C)C)C(=O)OC`, for which the GI50 in the assay with RPMI-8226, with DU-145, in the assay on NCI-H460, with Hs-578T, in the assay with SW-620 and in the assay on MDA-MB-231 was > 100 µM (inactive) throughout. The GI50 in the assay with K562, with UACC-62, in the assay with HOP-62, in the assay on HCT-116, with NCI-H226 and in the assay on Malme-3M was > 100 µM (inactive) throughout. The GI50 in the assay on SR is > 100 µM (inactive); with HL-60, > 100 µM (inactive); with IGROV-1, > 100 µM (inactive); in the assay on HCT-15, over 100 µM; in the assay on U-251, > 100 µM (inactive); in the assay on TK-10, > 100 µM (inactive). In the assay with COLO 205, the GI50 was > 100 µM (inactive).

With `O=[N+]([O-])C(=C(N1CCOCC1)N1CCOCC1)/C(Cl)=C(\Cl)Br`, the GI50 in the assay with RPMI-8226 was 14.5 µM (inactive); in the assay with DU-145, 46.6 µM (inactive); in the assay with NCI-H460, > 100 µM (inactive); in the assay on Hs-578T, > 100 µM (inactive); in the assay with SW-620 it was 15.5 µM (inactive); in the assay on MDA-MB-231 it was 17.9 µM (inactive). Also, the GI50 in the assay with K562 is 15.2 µM (inactive); with HOP-62, > 100 µM (inactive); with HCT-116, 17.1 µM (inactive); in the assay on NCI-H226, 27.6 µM (inactive); in the assay on A549, > 100 µM (inactive); in the assay on Malme-3M it was 16.1 µM (inactive). The GI50 was 17.2 µM (inactive) in the assay with SR; 3.86 µM (inactive) in the assay with HL-60; 15.2 µM in the assay on HCT-15; 19 µM (inactive) with U-251; 14.8 µM (inactive) in the assay with COLO 205.

Take `COc1ccc(-c2cn3c(nc4ccccc43)c(/C=C/c3cccs3)n2)cc1`: the GI50 in the assay on RPMI-8226 was 15.4 µM (inactive); in the assay with DU-145, > 100 µM (inactive); with NCI-H460, 32.4 µM (inactive); with Hs-578T, 28.4 µM (inactive); with SW-620, 41.1 µM (inactive); with MDA-MB-231, > 100 µM (inactive). Moreover, the GI50 with K562 was 9.48 µM (inactive); in the assay on UACC-62, 68.2 µM (inactive); in the assay on HOP-62, 83 µM (inactive); in the assay on HCT-116 it was 51.2 µM (inactive); in the assay on NCI-H226, > 100 µM (inactive); with A549 it was 55.6 µM (inactive). Further, the GI50 with Malme-3M was 23.4 µM (inactive); in the assay on SR it was 2.65 µM (inactive); in the assay on HL-60, 20.4 µM (inactive); in the assay on HCT-15, 26.7 µM; in the assay with U-251, 53.1 µM (inactive); in the assay with TK-10, > 100 µM (inactive). Also, in the assay with COLO 205, the GI50 was 29.8 µM (inactive).

In the case of `N#CC1C(=S)NC(c2ccccc2)=CC12CCCCC2` (stereo unspecified), the GI50 is 23.3 µM (inactive) with RPMI-8226; 26.6 µM (inactive) in the assay on DU-145; 94.8 µM (inactive) in the assay on NCI-H460; 53.7 µM (inactive) with Hs-578T; 38.8 µM (inactive) in the assay with SW-620; 38.9 µM (inactive) in the assay with MDA-MB-231. Moreover, the GI50 with K562 was 26.5 µM (inactive); with UACC-62, 20 µM (inactive); with HCT-116, 24.5 µM (inactive); in the assay on NCI-H226, 26.7 µM (inactive); with A549, 29.6 µM (inactive); in the assay with Malme-3M, 22.2 µM (inactive). The GI50 in the assay with SR is 21.1 µM (inactive); in the assay on HL-60 it was 22.2 µM (inactive); in the assay with IGROV-1, 23.4 µM (inactive); in the assay on HCT-15 it was 19.9 µM; in the assay on U-251, 31.1 µM (inactive); in the assay with TK-10, 23 µM (inactive). Further, the GI50 with COLO 205 is 30.1 µM (inactive).

Consider `Nc1nc(N)c2cc(-c3cc4ccccc4[nH]3)ccc2n1`, for which the GI50 was 14.3 µM (inactive) with RPMI-8226; 21.3 µM (inactive) with DU-145; 19.2 µM (inactive) in the assay on NCI-H460; 32.1 µM (inactive) in the assay on Hs-578T; 30.8 µM (inactive) in the assay with SW-620; 17.2 µM (inactive) with MDA-MB-231. The GI50 is 17.4 µM (inactive) in the assay with UACC-62; 30.8 µM (inactive) with HOP-62; 31.8 µM (inactive) in the assay with HCT-116; 27.7 µM (inactive) in the assay on NCI-H226; 32.2 µM (inactive) with A549; 16 µM (inactive) in the assay on Malme-3M. Besides, the GI50 in the assay with SR was 30.2 µM (inactive); in the assay with HL-60, 19.7 µM (inactive); in the assay on IGROV-1, 15.8 µM (inactive); in the assay with HCT-15 it was 22.1 µM; with U-251, 30.4 µM (inactive); with TK-10 it was 17.7 µM (inactive). The GI50 in the assay on COLO 205 is 10.3 µM (inactive).

Consider `NC(=S)NC/C=C/Cl`, for which the GI50 in the assay with RPMI-8226, in the assay on DU-145, with NCI-H460, in the assay on Hs-578T, in the assay with SW-620 and in the assay with MDA-MB-231 was > 100 µM (inactive) throughout. In addition, the GI50 with K562, in the assay on UACC-62, in the assay on HOP-62, in the assay with HCT-116, in the assay with NCI-H226 and with A549 was > 100 µM (inactive) each time. For the same compound, the GI50 in the assay with Malme-3M is > 100 µM (inactive); in the assay with SR, > 100 µM (inactive); in the assay on HL-60, > 100 µM (inactive); in the assay on IGROV-1 it was > 100 µM (inactive); in the assay with HCT-15 it was over 100 µM; in the assay on TK-10 it was > 100 µM (inactive). Also, the GI50 in the assay with COLO 205 was > 100 µM (inactive).

Take `COC(=O)c1ccccc1CC1Cc2cc3c(cc2C1)CCC3`: the GI50 with RPMI-8226 was 17.3 µM (inactive); in the assay with DU-145, 40.5 µM (inactive); in the assay with NCI-H460, 48.2 µM (inactive); with Hs-578T it was 45.8 µM (inactive); in the assay with SW-620, 53.5 µM (inactive); in the assay on MDA-MB-231, 55.1 µM (inactive). Further, the GI50 was 23 µM (inactive) in the assay with K562; 41.4 µM (inactive) in the assay with HOP-62; 22.1 µM (inactive) in the assay with HCT-116; 35.2 µM (inactive) in the assay on NCI-H226; 36.1 µM (inactive) in the assay on A549; 21.3 µM (inactive) with Malme-3M. Moreover, the GI50 in the assay with SR is 5.58 µM (inactive); with HL-60, 9.75 µM (inactive); in the assay with IGROV-1 it was 37.3 µM (inactive); with HCT-15, 48.8 µM; in the assay with U-251, 36.5 µM (inactive); in the assay with TK-10, > 100 µM (inactive). Besides, the GI50 with COLO 205 is 23.8 µM (inactive).

Consider `CCOC(=O)NC(NC1=NCCS1)(C(=O)OCC)C(F)(F)F` (stereo unspecified), for which the GI50 in the assay with RPMI-8226, in the assay on DU-145, in the assay with NCI-H460, in the assay with Hs-578T, in the assay with SW-620 and with MDA-MB-231 was > 100 µM (inactive) in each case. For the same compound, the GI50 in the assay on K562, in the assay with HOP-62, with HCT-116, in the assay on NCI-H226, in the assay with A549 and in the assay with Malme-3M was > 100 µM (inactive) in each case. Moreover, the GI50 was > 100 µM (inactive) with SR; > 100 µM (inactive) in the assay with HL-60; > 100 µM (inactive) in the assay with IGROV-1; over 100 µM with HCT-15; > 100 µM (inactive) with U-251; > 100 µM (inactive) in the assay with TK-10. Further, the GI50 in the assay with COLO 205 is > 100 µM (inactive).

`c1ccc(NNN2NC(c3ccccc3)C2c2ccccc2)cc1` (stereo unspecified): the GI50 in the assay with RPMI-8226 is > 100 µM (inactive); in the assay on DU-145, > 100 µM (inactive); with NCI-H460, 72.4 µM (inactive); with Hs-578T, > 100 µM (inactive); in the assay with SW-620, > 100 µM (inactive); in the assay with MDA-MB-231 it was > 100 µM (inactive). Also, the GI50 is 91.8 µM (inactive) in the assay with K562; > 100 µM (inactive) in the assay on UACC-62; 79.4 µM (inactive) with HCT-116; > 100 µM (inactive) with NCI-H226; 60 µM (inactive) in the assay with A549; 28.9 µM (inactive) in the assay with Malme-3M. The GI50 was > 100 µM (inactive) in the assay with SR; 49.5 µM (inactive) with HL-60; over 100 µM with HCT-15; > 100 µM (inactive) in the assay on U-251; > 100 µM (inactive) with TK-10; > 100 µM (inactive) in the assay with COLO 205.
